In ChEMBL document CHEMBL4507273 (2021):

Assays:
[1] = system: Tyrosine-protein kinase ABL1 (Homo sapiens), P00519 [H396P]; details: Compound concentration 1000.0 nM
[2] = system: Tyrosine-protein kinase ABL1 (Homo sapiens), P00519 [Q252H]; details: Compound concentration 1000.0 nM
[3] = target: RAC-beta serine/threonine-protein kinase (Homo sapiens) (UniProt P31751); details: Compound concentration 1000.0 nM
[4] = target: 5'-AMP-activated protein kinase catalytic subunit alpha-2 (Homo sapiens) (UniProt P54646); details: Compound concentration 1000.0 nM
Sequence of 5'-AMP-activated protein kinase catalytic subunit alpha-2 (Homo sapiens) (P54646 whole entry, looked up): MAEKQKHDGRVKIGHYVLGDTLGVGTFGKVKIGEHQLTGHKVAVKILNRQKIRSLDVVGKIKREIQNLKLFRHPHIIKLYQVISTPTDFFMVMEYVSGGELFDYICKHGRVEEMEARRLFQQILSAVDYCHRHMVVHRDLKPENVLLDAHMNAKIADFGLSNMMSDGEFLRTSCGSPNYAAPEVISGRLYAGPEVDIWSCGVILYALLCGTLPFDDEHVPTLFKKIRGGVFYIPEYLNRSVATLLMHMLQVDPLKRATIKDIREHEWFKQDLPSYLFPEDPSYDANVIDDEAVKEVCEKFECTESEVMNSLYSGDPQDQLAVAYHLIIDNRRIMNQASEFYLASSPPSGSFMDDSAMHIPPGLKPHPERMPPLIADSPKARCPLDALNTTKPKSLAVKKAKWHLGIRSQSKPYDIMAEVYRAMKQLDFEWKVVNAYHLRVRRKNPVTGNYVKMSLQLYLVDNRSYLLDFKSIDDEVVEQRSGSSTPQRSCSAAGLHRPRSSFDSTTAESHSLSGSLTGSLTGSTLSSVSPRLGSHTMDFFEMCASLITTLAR

[5] = target: Cyclin-dependent kinase 11B (Homo sapiens) (UniProt P21127); details: Compound concentration 1000.0 nM
[6] = target: Cyclin-dependent kinase 9 (Homo sapiens) (UniProt P50750); details: Compound concentration 1000.0 nM
[7] = target: Citron Rho-interacting kinase (Homo sapiens) (UniProt O14578); details: Compound concentration 1000.0 nM
[8] = target: Serine/threonine-protein kinase MRCK gamma (Homo sapiens) (UniProt Q6DT37); details: Compound concentration 1000.0 nM
[9] = target: Dual specificity tyrosine-phosphorylation-regulated kinase 1B (Homo sapiens) (UniProt Q9Y463); details: Compound concentration 1000.0 nM
[10] = target: Epidermal growth factor receptor (Homo sapiens, UniProt P00533); details: Compound concentration 1000.0 nM
Sequence of Epidermal growth factor receptor (P00533 whole entry): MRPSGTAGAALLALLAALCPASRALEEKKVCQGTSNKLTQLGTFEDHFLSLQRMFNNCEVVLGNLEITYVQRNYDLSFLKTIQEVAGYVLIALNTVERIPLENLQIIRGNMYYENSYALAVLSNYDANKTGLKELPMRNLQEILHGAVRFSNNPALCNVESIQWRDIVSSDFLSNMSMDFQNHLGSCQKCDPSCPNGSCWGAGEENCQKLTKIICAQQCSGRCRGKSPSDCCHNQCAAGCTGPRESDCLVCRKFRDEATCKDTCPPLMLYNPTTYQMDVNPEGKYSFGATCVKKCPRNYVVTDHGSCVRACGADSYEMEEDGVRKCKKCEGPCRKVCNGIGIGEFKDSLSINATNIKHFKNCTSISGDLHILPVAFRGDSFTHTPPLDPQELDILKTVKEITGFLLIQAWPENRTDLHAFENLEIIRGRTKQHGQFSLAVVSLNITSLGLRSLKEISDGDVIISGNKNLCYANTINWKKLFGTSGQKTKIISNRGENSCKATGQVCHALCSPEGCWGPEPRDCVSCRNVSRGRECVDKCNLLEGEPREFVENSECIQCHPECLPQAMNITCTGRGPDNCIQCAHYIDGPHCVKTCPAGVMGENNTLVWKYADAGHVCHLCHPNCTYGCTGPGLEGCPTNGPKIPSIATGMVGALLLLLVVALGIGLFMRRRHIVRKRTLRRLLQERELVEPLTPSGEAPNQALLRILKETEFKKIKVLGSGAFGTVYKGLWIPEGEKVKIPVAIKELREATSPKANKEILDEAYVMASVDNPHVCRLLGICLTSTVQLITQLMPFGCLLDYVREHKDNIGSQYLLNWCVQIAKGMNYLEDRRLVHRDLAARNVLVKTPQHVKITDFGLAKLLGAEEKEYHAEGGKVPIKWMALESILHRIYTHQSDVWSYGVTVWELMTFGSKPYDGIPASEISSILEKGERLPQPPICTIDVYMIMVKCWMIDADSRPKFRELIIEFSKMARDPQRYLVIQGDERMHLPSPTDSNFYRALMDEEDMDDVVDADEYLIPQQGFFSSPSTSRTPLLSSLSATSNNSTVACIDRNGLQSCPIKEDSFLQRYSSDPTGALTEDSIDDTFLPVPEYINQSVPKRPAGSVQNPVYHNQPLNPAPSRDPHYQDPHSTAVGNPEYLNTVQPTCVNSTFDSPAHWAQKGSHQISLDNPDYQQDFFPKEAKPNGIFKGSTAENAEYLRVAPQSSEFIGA

[11] = target: Ephrin type-A receptor 4 (Homo sapiens) (UniProt P54764); details: Compound concentration 1000.0 nM
Sequence of Ephrin type-A receptor 4 (Homo sapiens) (P54764 whole entry): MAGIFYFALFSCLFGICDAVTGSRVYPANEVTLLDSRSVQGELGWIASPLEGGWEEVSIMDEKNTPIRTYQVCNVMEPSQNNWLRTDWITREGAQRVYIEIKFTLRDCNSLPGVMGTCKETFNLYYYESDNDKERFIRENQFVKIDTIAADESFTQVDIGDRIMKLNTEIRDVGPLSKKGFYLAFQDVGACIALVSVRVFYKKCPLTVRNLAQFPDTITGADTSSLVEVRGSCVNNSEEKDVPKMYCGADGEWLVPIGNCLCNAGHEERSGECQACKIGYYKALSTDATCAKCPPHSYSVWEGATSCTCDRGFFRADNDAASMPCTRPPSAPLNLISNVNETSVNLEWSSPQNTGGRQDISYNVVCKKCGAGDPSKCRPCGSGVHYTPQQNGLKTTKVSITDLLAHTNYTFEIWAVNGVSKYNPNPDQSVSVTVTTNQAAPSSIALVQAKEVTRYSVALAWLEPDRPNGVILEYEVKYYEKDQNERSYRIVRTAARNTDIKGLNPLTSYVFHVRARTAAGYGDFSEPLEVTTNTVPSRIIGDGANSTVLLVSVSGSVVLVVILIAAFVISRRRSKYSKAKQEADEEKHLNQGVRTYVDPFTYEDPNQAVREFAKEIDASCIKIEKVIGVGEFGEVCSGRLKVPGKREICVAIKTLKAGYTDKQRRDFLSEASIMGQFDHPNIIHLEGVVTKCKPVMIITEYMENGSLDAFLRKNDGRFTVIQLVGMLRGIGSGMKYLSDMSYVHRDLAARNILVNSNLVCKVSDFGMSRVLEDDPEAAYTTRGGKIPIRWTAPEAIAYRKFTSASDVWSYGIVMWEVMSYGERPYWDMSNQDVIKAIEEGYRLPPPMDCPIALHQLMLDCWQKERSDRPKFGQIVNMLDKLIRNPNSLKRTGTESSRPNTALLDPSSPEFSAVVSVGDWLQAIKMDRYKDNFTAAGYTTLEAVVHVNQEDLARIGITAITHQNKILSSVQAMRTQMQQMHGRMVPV

[12] = target: Ephrin type-A receptor 6 (Homo sapiens) (UniProt Q9UF33); details: Compound concentration 1000.0 nM
[13] = target: Ephrin type-A receptor 8 (Homo sapiens) (UniProt P29322); details: Compound concentration 1000.0 nM
[14] = target: Mitogen-activated protein kinase 7 (Homo sapiens) (UniProt Q13164); details: Compound concentration 1000.0 nM
[15] = target: Serine/threonine-protein kinase haspin (Homo sapiens) (UniProt Q8TF76); details: Compound concentration 1000.0 nM
[16] = target: Serine/threonine-protein kinase LATS2 (Homo sapiens) (UniProt Q9NRM7); details: Compound concentration 1000.0 nM
[17] = target: Tyrosine-protein kinase Lyn (Homo sapiens) (UniProt P07948); details: Compound concentration 1000.0 nM
[18] = target: Serine/threonine-protein kinase MARK1 (Homo sapiens) (UniProt Q9P0L2); details: Compound concentration 1000.0 nM
[19] = target: Serine/threonine-protein kinase Nek10 (Homo sapiens) (UniProt Q6ZWH5); details: Compound concentration 1000.0 nM
[20] = target: Serine/threonine-protein kinase Nek11 (Homo sapiens) (UniProt Q8NG66); details: Compound concentration 1000.0 nM
[21] = target: Serine/threonine-protein kinase PAK 6 (Homo sapiens) (UniProt Q9NQU5); details: Compound concentration 1000.0 nM
[22] = target: Platelet-derived growth factor receptor beta (Homo sapiens) (UniProt P09619); details: Compound concentration 1000.0 nM
[23] = target: Phosphatidylinositol 4-kinase beta (Homo sapiens) (UniProt Q9UBF8); details: Compound concentration 1000.0 nM
[24] = target: Phosphatidylinositol 5-phosphate 4-kinase type-2 beta (Homo sapiens) (UniProt P78356); details: Compound concentration 1000.0 nM
Sequence of Phosphatidylinositol 5-phosphate 4-kinase type-2 beta (Homo sapiens) (P78356 whole entry): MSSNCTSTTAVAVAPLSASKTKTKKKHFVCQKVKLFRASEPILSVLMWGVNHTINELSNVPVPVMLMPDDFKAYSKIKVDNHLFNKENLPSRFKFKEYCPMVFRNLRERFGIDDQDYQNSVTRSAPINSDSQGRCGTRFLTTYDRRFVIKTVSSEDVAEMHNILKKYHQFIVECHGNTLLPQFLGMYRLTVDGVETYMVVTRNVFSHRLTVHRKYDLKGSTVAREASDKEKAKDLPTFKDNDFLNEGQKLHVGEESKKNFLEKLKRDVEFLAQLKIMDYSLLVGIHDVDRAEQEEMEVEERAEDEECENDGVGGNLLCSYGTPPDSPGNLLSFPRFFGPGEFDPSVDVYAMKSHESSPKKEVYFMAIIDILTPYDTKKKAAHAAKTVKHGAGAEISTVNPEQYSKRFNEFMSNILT

[25] = target: Serine/threonine-protein kinase PknB (Mycobacterium tuberculosis) (UniProt P9WI81); details: Compound concentration 1000.0 nM
Sequence of Serine/threonine-protein kinase PknB (Mycobacterium tuberculosis) (P9WI81 whole entry): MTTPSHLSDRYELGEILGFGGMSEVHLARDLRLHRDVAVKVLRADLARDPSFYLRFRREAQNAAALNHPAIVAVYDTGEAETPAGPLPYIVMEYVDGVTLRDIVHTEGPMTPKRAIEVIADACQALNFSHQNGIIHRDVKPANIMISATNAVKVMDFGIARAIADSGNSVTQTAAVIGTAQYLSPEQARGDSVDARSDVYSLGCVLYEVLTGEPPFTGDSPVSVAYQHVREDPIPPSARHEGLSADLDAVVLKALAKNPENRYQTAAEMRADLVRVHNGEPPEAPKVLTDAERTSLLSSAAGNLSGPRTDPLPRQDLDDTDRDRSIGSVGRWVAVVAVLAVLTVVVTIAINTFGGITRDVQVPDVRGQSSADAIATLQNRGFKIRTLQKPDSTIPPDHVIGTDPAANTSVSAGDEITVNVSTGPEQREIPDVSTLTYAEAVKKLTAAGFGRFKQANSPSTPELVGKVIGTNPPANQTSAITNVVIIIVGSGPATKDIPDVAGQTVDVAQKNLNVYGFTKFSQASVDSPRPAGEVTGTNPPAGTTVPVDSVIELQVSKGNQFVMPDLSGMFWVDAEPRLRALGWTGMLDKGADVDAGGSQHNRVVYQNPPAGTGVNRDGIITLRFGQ

[26] = target: Serine/threonine-protein kinase PLK3 (Homo sapiens) (UniProt Q9H4B4); details: Compound concentration 1000.0 nM
[27] = target: Protein kinase C iota type (Homo sapiens) (UniProt P41743); details: Compound concentration 1000.0 nM
[28] = target: Ribosomal protein S6 kinase alpha-4 (Homo sapiens) (UniProt O75676); details: Compound concentration 1000.0 nM
[29] = target: Ribosomal protein S6 kinase alpha-1 (Homo sapiens) (UniProt Q15418); details: Compound concentration 1000.0 nM
[30] = target: TGF-beta receptor type-2 (Homo sapiens) (UniProt P37173); details: Compound concentration 1000.0 nM
[31] = target: Tyrosine-protein kinase receptor Tie-1 (Homo sapiens) (UniProt P35590); details: Compound concentration 1000.0 nM
[32] = target: Phosphatidylinositol 3-kinase catalytic subunit type 3 (Homo sapiens) (UniProt Q8NEB9); details: Compound concentration 1000.0 nM
[33] = target: Serine/threonine-protein kinase WNK2 (Homo sapiens) (UniProt Q9Y3S1); details: Compound concentration 1000.0 nM
[34] = target: Serine/threonine-protein kinase WNK4 (Homo sapiens) (UniProt Q96J92); details: Compound concentration 1000.0 nM
Sequence of Serine/threonine-protein kinase WNK4 (Homo sapiens) (Q96J92 whole entry): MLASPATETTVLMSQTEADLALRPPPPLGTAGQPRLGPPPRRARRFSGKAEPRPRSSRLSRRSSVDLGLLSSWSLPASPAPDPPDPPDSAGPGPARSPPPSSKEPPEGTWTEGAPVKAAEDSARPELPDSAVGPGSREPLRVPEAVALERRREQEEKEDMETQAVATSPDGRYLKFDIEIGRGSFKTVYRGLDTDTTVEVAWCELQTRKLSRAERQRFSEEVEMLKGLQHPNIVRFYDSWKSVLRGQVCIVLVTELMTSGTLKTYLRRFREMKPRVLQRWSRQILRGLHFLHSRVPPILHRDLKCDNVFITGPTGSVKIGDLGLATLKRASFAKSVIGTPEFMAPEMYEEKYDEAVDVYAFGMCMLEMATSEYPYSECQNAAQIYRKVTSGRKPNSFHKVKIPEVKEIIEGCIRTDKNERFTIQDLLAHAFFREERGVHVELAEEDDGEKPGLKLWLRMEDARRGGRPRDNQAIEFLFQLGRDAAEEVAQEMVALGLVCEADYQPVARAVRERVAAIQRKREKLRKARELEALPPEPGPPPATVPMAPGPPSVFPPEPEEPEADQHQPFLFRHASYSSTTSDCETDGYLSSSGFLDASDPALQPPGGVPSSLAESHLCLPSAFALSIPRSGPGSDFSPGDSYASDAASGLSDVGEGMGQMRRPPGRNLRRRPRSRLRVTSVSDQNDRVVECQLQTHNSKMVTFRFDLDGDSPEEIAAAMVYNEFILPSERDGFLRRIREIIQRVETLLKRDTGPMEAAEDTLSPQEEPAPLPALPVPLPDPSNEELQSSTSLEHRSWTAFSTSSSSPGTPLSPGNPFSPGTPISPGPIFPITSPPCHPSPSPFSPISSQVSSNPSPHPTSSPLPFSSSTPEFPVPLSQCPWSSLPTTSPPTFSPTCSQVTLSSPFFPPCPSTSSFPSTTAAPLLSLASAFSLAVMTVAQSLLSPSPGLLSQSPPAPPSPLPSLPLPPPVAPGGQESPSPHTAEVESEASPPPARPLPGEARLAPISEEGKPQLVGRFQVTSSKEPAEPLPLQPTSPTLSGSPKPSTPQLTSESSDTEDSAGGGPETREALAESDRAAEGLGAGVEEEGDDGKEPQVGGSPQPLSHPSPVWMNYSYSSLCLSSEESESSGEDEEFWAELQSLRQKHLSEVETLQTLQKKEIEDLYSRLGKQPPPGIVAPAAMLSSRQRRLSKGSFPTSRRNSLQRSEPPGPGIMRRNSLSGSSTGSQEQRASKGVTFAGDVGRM

[35] = target: 5-hydroxytryptamine receptor 7 (Homo sapiens, UniProt P34969); details: Compound concentration 10.0 uM
[36] = target: D(1B) dopamine receptor (Homo sapiens) (UniProt P21918); details: Compound concentration 10.0 uM
[37] = target: GABA-A receptor; anion channel (Rattus norvegicus) (UniProt O09028+P15431+P18506+P18508+P19969+P20236+P23574+P23576+P28471+P28473+P30191+P62813+P63079+P63138+Q91ZM7+Q9ES14); details: Compound concentration 10.0 uM
[38] = target: T1, Alpha-2C adrenergic receptor (Homo sapiens) (UniProt P18825); details: Compound concentration 10.0 uM
T1 sequence (whole entry): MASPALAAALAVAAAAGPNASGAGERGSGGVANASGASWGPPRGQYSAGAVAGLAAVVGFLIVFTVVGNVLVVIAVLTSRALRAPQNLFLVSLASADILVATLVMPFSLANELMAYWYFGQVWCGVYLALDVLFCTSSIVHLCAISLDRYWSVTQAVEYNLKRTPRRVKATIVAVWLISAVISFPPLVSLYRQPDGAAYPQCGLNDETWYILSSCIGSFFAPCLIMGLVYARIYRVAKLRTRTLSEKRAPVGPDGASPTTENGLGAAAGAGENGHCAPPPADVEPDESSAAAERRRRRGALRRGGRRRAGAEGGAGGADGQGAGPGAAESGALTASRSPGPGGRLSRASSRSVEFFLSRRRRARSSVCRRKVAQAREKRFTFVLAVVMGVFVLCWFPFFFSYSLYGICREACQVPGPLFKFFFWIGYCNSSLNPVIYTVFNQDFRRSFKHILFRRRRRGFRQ

SMILES	residual activity [1] [%]	residual activity [2] [%]	residual activity [3] [%]	residual activity [4] [%]	residual activity [5] [%]	residual activity [6] [%]	residual activity [7] [%]	residual activity [8] [%]	residual activity [9] [%]	residual activity [10] [%]	residual activity [11] [%]	residual activity [12] [%]	residual activity [13] [%]	residual activity [14] [%]	residual activity [15] [%]	residual activity [16] [%]	residual activity [17] [%]	residual activity [18] [%]	residual activity [19] [%]	residual activity [20] [%]	other results
CNCc1ccccc1-c1csc([C@@H](C)Nc2nc(C)nc3cc(OC)c(OC)cc23)c1 [BAY-293]	78	85	72	97	100	100	92	98	64	90	79	96	100	97	98	98	100	100	73	100	residual activity [21]: 100%; residual activity [22]: 91%; residual activity [23]: 82%; residual activity [24]: 100%; residual activity [25]: 76%; residual activity [26]: 91%; residual activity [27]: 100%; residual activity [28]: 100%; residual activity [29]: 100%; residual activity [30]: 91%; residual activity [31]: 100%; residual activity [32]: 100%; residual activity [33]: 72%; residual activity [34]: 100%; inhibition [35]: 76.2%; inhibition [36]: 32.5%; inhibition [37]: 0.89%; inhibition [38]: 94.2%
CNCc1ccccc1-c1csc([C@H](C)Nc2nc(C)nc3cc(OC)c(OC)cc23)c1 [BAY-294]	89	84	90	100	100	100	100	100	55	100	100	100	100	100	100	95	100	100	78	100	residual activity [21]: 100%; residual activity [22]: 99%; residual activity [23]: 74%; residual activity [24]: 100%; residual activity [25]: 90%; residual activity [26]: 87%; residual activity [27]: 87%; residual activity [28]: 100%; residual activity [29]: 100%; residual activity [30]: 97%; residual activity [31]: 100%; residual activity [32]: 93%; residual activity [33]: 99%; residual activity [34]: 90%; inhibition [35]: 70.7%; inhibition [36]: 36.6%; inhibition [37]: -1.27%; inhibition [38]: 94.2%
